# Laboratory results taken from PubChem BioAssay (NCI).
#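 Method: 48-hour compound exposure of cells in 96-well plates, five concentrations, linear interpolation of endpoints. The concentration for 50% growth inhibition is given as GI50. TGI: total growth inhibition.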
# Assays:
# Assay in all cases: NCI-60 cell line screen, 48 h
# HOP-62 NSCLC = system: HOP-62 NSCLC
# SNB-19 CNS = system: SNB-19 CNS
# SK-OV-3 ovarian = system: SK-OV-3 ovarian
# HT29 colon = system: HT29 colon
# CAKI-1 renal = system: CAKI-1 renal
# COLO 205 colon = system: COLO 205 colon
# A549 NSCLC = system: A549 NSCLC
# HCT-116 colon = system: HCT-116 colon
# ACHN renal = system: ACHN renal
# DU-145 prostate = system: DU-145 prostate
SMILES,TGI (HOP-62 NSCLC) [µM],TGI (SNB-19 CNS) [µM],TGI (SK-OV-3 ovarian) [µM],TGI (HT29 colon) [µM],TGI (CAKI-1 renal) [µM],TGI (COLO 205 colon) [µM],TGI (A549 NSCLC) [µM],TGI (HCT-116 colon) [µM],TGI (ACHN renal) [µM],TGI (DU-145 prostate) [µM],GI50 (HOP-62 NSCLC) [µM],GI50 (SNB-19 CNS) [µM],GI50 (SK-OV-3 ovarian) [µM],GI50 (HT29 colon) [µM],GI50 (COLO 205 colon) [µM],GI50 (A549 NSCLC) [µM],GI50 (HCT-116 colon) [µM],GI50 (ACHN renal) [µM],GI50 (DU-145 prostate) [µM],GI50 (CAKI-1 renal) [µM]
Cn1cnnc1Sc1c([N+](=O)[O-])nc(-c2ccc([N+](=O)[O-])cc2)n1C,> 100,> 100,> 100,34.3,> 100,28.3,> 100,28.4,33.7,,,,,,,,,,,
CCCCn1c(-c2ccccc2)cs/c1=N\NC(=O)Cn1c(C)nc2ccccc21,> 100,> 100,> 100,> 100,> 100,38.2,> 100,> 100,> 100,,,,,,,,,,,
O=C(O)C12C=CC(C1)c1ccccc12 (stereo unspecified),> 100,> 100,> 100,> 100,> 100,> 100,> 100,> 100,> 100,,,,,,,,,,,
C/C(=N/NC(N)=S)C(CN1CCOCC1)C(C1=C(O)c2ccccc2OC1)c1ccccc1 (stereo unspecified),,> 100,> 100,> 100,> 100,> 100,> 100,> 100,> 100,> 100,,,,,,,,,,
BrCc1ccc2ccc3ccc(CBr)nc3c2n1,21,19.5,,4.61,12.7,4.3,34.7,6.7,5.58,21.7,,,,,,,,,,
N.N.N.N.O=S([O-])[O-].[Co+3].[N-]=[N+]=[N-],> 100,> 100,> 100,> 100,,> 100,> 100,> 100,> 100,,> 100,> 100,> 100,> 100,> 100,> 100,> 100,> 100,,
O=C1C(=O)N(c2cc(Cl)ccc2Cl)C(=O)C(=O)C1c1nc2ccccc2s1,> 100,> 100,> 100,> 100,> 100,> 100,> 100,> 100,> 100,,,,,,,,,,,
O=C1c2ccccc2-c2c1c1ccccc1c(=O)n2CCNCCNCCNCCNCCn1c2c(c3ccccc3c1=O)C(=O)c1ccccc1-2,2.24,,,4.07,2.93,3.94,3.23,,0.58,1.57,0.973,,,0.0986,0.597,0.59,0.133,0.0446,0.161,0.26
CCOC(=O)NN1C(=O)C(=P(c2ccccc2)(c2ccccc2)c2ccccc2)C(C(=O)OC)=C1C,> 100,> 100,> 100,> 100,> 100,> 100,> 100,> 100,> 100,,,,,,,,,,,
CNC(=O)NCCCCC(NC(C)=O)C(=O)NCc1ccccc1 (stereo unspecified),> 100,> 100,> 100,> 100,> 100,> 100,> 100,> 100,> 100,,,,,,,,,,,
COC(OC)c1cccnc1C,> 100,> 100,> 100,> 100,> 100,> 100,> 100,> 100,> 100,,,,,,,,,,,
COc1cc(C2CC(c3ccc(Cl)cc3)=NN2C(C)=O)ccc1Oc1ccnc2cc(Cl)ccc12 (stereo unspecified),,> 100,,,> 100,,,,,> 100,,> 100,,,,,,,> 100,> 100
O=C(Cc1nc2ccccc2s1)C(=O)Nc1cccc(C(F)(F)F)c1,> 100,> 100,> 100,> 100,> 100,> 100,> 100,> 100,> 100,,,,,,,,,,,
C=C(c1ccccc1)c1cc2c(=O)[nH]ccc2n1C,> 100,> 100,69.4,,> 100,35.6,> 100,,> 100,,,,,,,,,,,
COc1cccc(C=NC23CC4CC(CC(C4)C2)C3)c1,> 100,> 100,> 100,> 100,> 100,> 100,> 100,> 100,> 100,,,,,,,,,,,
C[C@]12CC[C@H](OC(=O)Nc3ccccc3)CC1=CC[C@@H]1C2CC[C@]2(C)/C(=N/OC(=O)Nc3ccccc3)CCC12 (stereo partly specified),,> 100,> 100,> 100,4.96,> 100,> 100,> 100,> 100,,,,,,,,,,,
COc1ccc(OCC(=O)O)c2c1CCC(C)C2=O (stereo unspecified),> 100,> 100,> 100,> 100,> 100,> 100,> 100,> 100,> 100,,,,,,,,,,,
COc1c2c(c(O)c3c4c(c(C)cc13)C1OC3(C(OC)OC5CC(C)(O)C(OC6CC(C)(O)C(O)C(C)O6)C(C)O5)OC1C(OC)(O4)C31CO1)C(=O)C(O)CC2OC1CC(C)(O)C(OC(C)=O)C(C)O1 (stereo unspecified),,0.739,0.714,,2.71,,1.45,5.74,0.0924,,,,,,,,,,,
O=C1N=C2N=C(c3ccc(Cl)cc3)N(c3ccc(Cl)cc3)N2Sc2ccccc21,> 100,> 100,> 100,> 100,> 100,> 100,> 100,> 100,> 100,,,,,,,,,,,
O=C(NCCCN1CCN(CCCNC(=O)Nc2cc(Cl)ccc2Cl)CC1)Nc1cc(Cl)ccc1Cl,> 100,> 100,> 100,> 100,> 100,> 100,> 100,> 100,> 100,,,,,,,,,,,
C/C(=C\c1ccccc1)C(=O)c1c(C)cc(C)cc1C,> 100,> 100,> 100,> 100,> 100,> 100,> 100,> 100,> 100,,,,,,,,,,,
Cc1nc(Nc2ccc(Cl)cc2)sc1C(=O)Nc1cccc2c(=O)[nH][nH]c(=O)c12,> 100,> 100,> 100,41.6,> 100,34,> 100,> 100,> 100,,,,,,,,,,,
CC(NC1CCCC[C@@H]1O)c1ccccc1 (stereo partly specified),> 100,> 100,> 100,> 100,> 100,> 100,> 100,> 100,> 100,,,,,,,,,,,
